Data as given in ChEMBL document CHEMBL1143523, “Semi-synthesis and biological evaluation of analogues of UK-2A, a novel antifungal antibiotic from Streptomyces sp. 517-02” (2005).

What was measured:
Assay type in all cases: functional
[1] = system: Saccharomyces cerevisiae; test: Zone of inhibition for Saccharomyces cerevisiae IFO 0203 at 0.25 ug/disc by conventional paper disk method
[2] = system: Saccharomyces cerevisiae; test: Zone of inhibition for Saccharomyces cerevisiae IFO 0203 at 0.025 ug/disc by conventional paper disk method
[3] = system: Saccharomyces cerevisiae; test: Zone of inhibition for Saccharomyces cerevisiae IFO 0203 at 0.125 ug/disc by conventional paper disk method
[4] = system: Saccharomyces cerevisiae; test: Zone of inhibition for Saccharomyces cerevisiae IFO 0203 at 0.05 ug/disc by conventional paper disk method

SMILES	zone of inhibition at 0.25 µg/disc [1] [mm]	zone of inhibition at 0.025 µg/disc [2] [mm]	zone of inhibition at 0.125 µg/disc [3] [mm]	zone of inhibition at 0.05 µg/disc [4] [mm]
COc1ccnc(C(=O)N[C@H]2COC(=O)[C@H](Cc3ccccc3)[C@@H](OC(=O)C(C)C)[C@H](C)OC2=O)c1OC(C)=O	18	10	14	12
COc1ccnc(C(=O)N[C@H]2COC(=O)[C@H](Cc3ccccc3)[C@@H](OC(=O)C(C)C)[C@H](C)OC2=O)c1OC(=O)CCCCCC(=O)Oc1ccccc1	18	8	15	10
CC(C)C(=O)O[C@H]1[C@H](C)OC(=O)[C@@H](NC(=O)c2nc3ccccc3nc2O)COC(=O)[C@@H]1Cc1ccccc1	24	14	20	18
CC(C)C(=O)O[C@H]1[C@H](C)OC(=O)[C@@H](NC(=O)c2cccnc2O)COC(=O)[C@@H]1Cc1ccccc1	17	0	16	12
COc1ccc(O)c(C(=O)N[C@H]2COC(=O)[C@H](Cc3ccccc3)[C@@H](OC(=O)C(C)C)[C@H](C)OC2=O)n1	27	16	24	19
COc1ccnc(C(=O)N[C@H]2COC(=O)[C@H](Cc3ccc([N+](=O)[O-])cc3)[C@@H](OC(=O)C(C)C)[C@H](C)OC2=O)c1O	20	12	18	15
COc1ccnc(C(=O)N[C@H]2COC(=O)[C@H](Cc3ccc(N(C)C)cc3)[C@@H](OC(=O)C(C)C)[C@H](C)OC2=O)c1O	19	0	15	11
CC(C)C(=O)O[C@H]1[C@H](C)OC(=O)[C@@H](NC(=O)c2cccc(NC=O)c2O)COC(=O)[C@@H]1Cc1ccccc1	17	8	16	12
CC(C)C(=O)O[C@H]1[C@H](C)OC(=O)[C@@H](NC(=O)c2cccc(N(C)C)c2O)COC(=O)[C@@H]1Cc1ccccc1	14	8	12	8
COc1ccnc(C(=O)N[C@H]2COC(=O)[C@H](Cc3ccc(NC=O)cc3)[C@@H](OC(=O)C(C)C)[C@H](C)OC2=O)c1O	0	0	0	0
COc1ccnc(C(=O)N[C@H]2COC(=O)[C@H](Cc3ccccc3)[C@@H](OC(=O)C(C)C)[C@H](C)OC2=O)c1O	26	19	26	22
COc1ccnc(C(=O)N[C@H]2COC(=O)[C@H](Cc3ccc(N)cc3)[C@@H](OC(=O)C(C)C)[C@H](C)OC2=O)c1O	10	0	8	0
COc1ccnc(C(=O)N[C@H]2COC(=O)[C@H](Cc3ccccc3)[C@@H](OC(=O)C(C)C)[C@H](C)OC2=O)c1OC(=O)CCCCCC(=O)O	24	12	21	16
CCOC(=O)COc1c(OC)ccnc1C(=O)N[C@H]1COC(=O)[C@H](Cc2ccccc2)[C@@H](OC(=O)C(C)C)[C@H](C)OC1=O	0	0	0	0
CC(C)C(=O)O[C@H]1[C@H](C)OC(=O)[C@@H](NC(=O)c2ccccc2O)COC(=O)[C@@H]1Cc1ccccc1	12	8	11	8
COc1ccnc(C(=O)N[C@H]2COC(=O)[C@H](Cc3ccccc3)[C@@H](OC(=O)C(C)C)[C@H](C)OC2=O)c1OC	0	0	0	0
CCCC[C@H]1C(=O)O[C@H](C)[C@H](NC(=O)c2cccc(NC=O)c2O)C(=O)O[C@@H](C)[C@@H]1OC(=O)CC(C)C [ANTIMYCIN A3]	26	16	19	18
